Marks after values point to notes of the source that are not given here. Square brackets hold non-standard residues; d marks the D form. Ends that are not written are not given here. Peptide text beside a SMILES is read from it.
Key:
[1] = tested on: THP1-Dual monocyte reporter cell line; assay: Adjuvant effect of helper molecules on immX3 peptide potency in THP1-Dual assay; format: cell-based, human
Description: (§1) Mammalian cell differentiation assays employed the THP1-Dual monocyte reporter cell line (Invivogen Inc, San Diego, CA) seeded at 2×10e5 cells per well in 96-well plates and cultured at 37 degrees C. in RPMI-1640 growth medium plus 10% fetal bovine serum and 1% penicillin/streptomycin. Cells were subsequently treated for 24 hours with 100 ng/ml Phorbol 12-myristate 13-acetate (PMA protocol; Cayman Chemical Company, Ann Arbor, MI). Peptide (0.33 uM or 0.66 uM, as indicated) was then added, and incubation continued for an additional 24 hours. Culture supernatants were assayed for CCL22. Plates with adherent cells were washed with PBS and assayed for immunoreactivity of surface markers such as CD169, Clec9a or Clec12a using fuorescent tag- or biotin-labeled anti-human antibodies purchased from Miltenyi Biotec (Auburn, CA) and the secondary detection reagent recommended by the manufacturer.
The THP1-Dual cell differentiation assay was carried out as described above in Example 2, using immX3 peptide (330 nM) in all samples plus the indicated helper or inhibitor molecule. Molecules were purched from Cayman Chemical Company (Ann Arbor, MI) or Sigma Chemical Company (St. Louis, MO). AU=arbitrary ELISA units. **p<0.01.

[2] = tested on: THP1-Dual monocyte reporter cell line; assay: THP1-Dual myeloid cell differentiation assay (PMA protocol); format: cell-based, human; settings: PMA 24 h, then peptide 0.33 uM or 0.66 uM 24 h; for CD169+ (AU): relative to immX3AVD = 100; for CCL22: culture supernatant
Description: as §1

[3] = PIP-binding membrane assay (Membrane Lipid Strips); design: key: —: −−− no binding; +++ strong binding; settings: 400 ng peptide
Description: N-terminally biotinylated versions of the peptides listed below were used in various assays listed in the examples. For the two types of phosphatidylinositon phosphate (PIP)-binding assays, imm1-imm6 peptides were used.
In the PIP-binding membrane assay, 400 ng of each peptide was bound to Membrane Lipid Strips (Catalog # P-6002, Echelon Biosciences, Salt Lake City, UT) and developed according to the manufacturer's instructions. Binding to PIPs was as follows (−−− no binding; +++ strong binding): […]

[4] = tested on: C2C12 myoblastic cell line; assay: C2C12 myoblast differentiation, creatine kinase; format: cell-based; settings: 0.66 uM peptide, 96 hours; helper none; relative to immX3AVD = 100
Description: Differentiation assays employed the C2C12 myoblastic cell line (ATCC, Manassas, VA) seeded at 2×10e5 cells per well in 96-well plates and cultured at 37 degrees C. in DMEM growth medium plus 10% fetal bovine serum and 1% penicillin/streptomycin. For differentiation, 10% fetal bovine serum was replaced with 2% horse serum. 0.66 uM peptide was then added, and incubation continued for an additional 96 hours. Plates with adherent cells were washed with PBS, lysed with Lytic-M buffer (Sigma Chemical Company, St. Louis, MO) and the lysates were assayed for creatine kinase using a kit purchased from Bioassay Systems (Cat. #ECPK-100, Hayward, CA). Effects were visually confirmed with microscopy tracking myotube formation. Results were expressed as units per milliliter relative to the control immX3AVD peptide, and p values were also calculated and shown relative to control immX3AVD peptide (** p<0.05 versus immX3AVD control; avg±SD).

[5] = immX3 peptide 330 nM plus helper at 2 uM
[6] = immX3 peptide 330 nM plus helper at 1 ug/ml
[7] = immX3 peptide 330 nM plus helper at 15 uM
[8] = immX3 peptide 330 nM plus helper at 1 mM
[9] = immX3 peptide 330 nM plus helper at 0.1 ug/ml

In the case of `Oc1ccc(C(c2c[nH]c3ccccc23)c2c[nH]c3ccccc23)cc1` [C-DIM8], the “CD169 (AU)” value [1, 5] is reported as 91.0 ± 24.8 AU.

For `CSCC[C@H](NC(=O)[C@H](CO)NC(=O)[C@@H](NC(=O)[C@H](CCC(=O)O)NC(=O)[C@H](CS)NC(=O)[C@H](CCC(N)=O)NC(=O)[C@H](CCCNC(=N)N)NC(=O)[C@H](CO)NC(=O)[C@H](Cc1c[nH]cn1)NC(=O)[C@H](Cc1ccc(O)cc1)NC(=O)[C@H](Cc1ccccc1)NC(=O)CNC(=O)[C@H](CC(N)=O)NC(=O)[C@@H](N)CCCCN)[C@@H](C)O)C(=O)N[C@@H](CC(=O)O)C(=O)NCC(=O)N[C@@H](CCC(=O)O)C(=O)N[C@@H](C)C(=O)NCC(=O)N[C@@H](CC(C)C)C(=O)N[C@@H](CS)C(=O)N[C@@H](Cc1c[nH]c2ccccc12)C(=O)O` [imm1] (H-KNGFYHSRQCETSMDGEAGLCW-OH), the “CD169+ (AU)” value [2] was 3.1 ± 2.2 AU, the “Binding to Phosphatidylinositol” value [3] was “—” and the “Binding to PtdIns(3,4,5)P [PIP3]” value [3] was “—”. The “Binding to PtdIns(4)P [PIP1]” value [3] was “—” and the “Binding to PtdIns(4,5)P [PIP2]” value [3] was “—”.

For `CN1C[C@H](C(=O)N[C@]2(C)O[C@@]3(O)[C@@H]4CCCN4C(=O)[C@H](Cc4ccccc4)N3C2=O)C[C@@H]2c3cccc4[nH]cc(c34)C[C@H]21` [Dihydroergotamine], the “CD169 (AU)” value [1, 5] was 170.3 ± 20.7** AU.

In the case of `CC(=O)S[C@@H]1CC2=CC(=O)CC[C@]2(C)[C@H]2CC[C@@]3(C)[C@@H](CC[C@@]34CCC(=O)O4)[C@H]12` [Spironolactone], the “CD169 (AU)” value [1, 5] is reported as 120.1 ± 10.5** AU.

With Leptin the “CD169 (AU)” value [1, 6] was 103.3 ± 11.6 AU.

With `Nc1nc2c(ncn2[C@@H]2O[C@@H]3COP(=O)(O)O[C@H]4[C@@H](O)[C@H](n5cnc6c(=O)[nH]c(N)nc65)O[C@@H]4COP(=O)(O)O[C@H]3[C@H]2O)c(=O)[nH]1` [Cyclic-di-GMP] the “CD169 (AU)” value [1, 7] was 142.9 ± 9.7** AU.

In the case of `C=C(c1ccc(C(=O)O)cc1)c1cc2c(cc1C)C(C)(C)CCC2(C)C` [Bexarotene], the “CD169 (AU)” value [1, 5] is reported as 96.9 ± 6.8 AU.

With HP-B-cyclodextrin the “CD169 (AU)” value [1, 8] was 121.1 ± 4.6** AU.

In the case of Holotransferrin [Holotransferrin (Tf)], the “CD169 (AU)” value ([1]; immX3 peptide 330 nM plus helper at 0.8 ug/ml) is reported as 126.8 ± 9.3** AU.

For `O=C(O)/C=C/C(=O)O` [L-fumarate], the “CD169 (AU)” value [1, 8] was 101.5 ± 7.3 AU.

For `C[C@H](O)C(=O)O` [L-lactate], the “CD169 (AU)” value ([1]; immX3 peptide 330 nM plus helper at 300 uM) was 121.1 ± 5.6** AU.

With `Cc1cc2c(cc1C1(c3ccc(C(=O)O)cn3)CC1)C(C)(C)CCC2(C)C` [LG100268] the “CD169 (AU)” value [1, 5] was 76.8 ± 11.9** AU.

In the case of `CN1c2ccccc2N=C(c2ccc(C(=O)O)cc2)c2cc3c(cc21)C(C)(C)CCC3(C)C` [HX600], the “CD169 (AU)” value [1, 5] is reported as 110.5 ± 19.0 AU.

For “KKGFYKKKQCRPSKGRKRGFCW(dA)VD (KKGFYKKKQCRPSKGRKRGFCW[dA]VD; cysteine pairing not given here) [immX3dAVD]”, the “CD169+ (AU)” value [2] was 104.3 ± 6.1 AU and the CCL22 [2] was 247.3 ± 16.1 pg/mL.

In the case of `Clc1ccc(C(c2c[nH]c3ccccc23)c2c[nH]c3ccccc23)cc1` [C-DIM12], the “CD169 (AU)” value [1, 5] is reported as 119.0 ± 3.7** AU.

With `Sc1ncnc2nc[nH]c12` [6-mercaptopurine] the “CD169 (AU)” value [1, 5] was 104.9 ± 4.0 AU.

In the case of `CN1c2ccc([N+](=O)[O-])cc2N=C(c2ccc(C(=O)O)cc2)c2cc3c(cc21)C(C)(C)CCC3(C)C` [HX531], the “CD169 (AU)” value [1, 5] is reported as 90.4 ± 6.2 AU.

For `O=C(NCc1ccco1)c1ccc2c(c1)N(Cc1c(F)cccc1Cl)C(=O)CS2` [Peptide G10, G10], the “CD169 (AU)” value [1, 5] was 143.4 ± 17.8** AU.

In the case of GM-CSF, the “CD169 (AU)” value [1, 9] is reported as 147.0 ± 15.3** AU.

With `Nc1nc2c(ncn2[C@@H]2O[C@@H]3COP(=O)(O)O[C@H]4[C@@H](O)[C@H](n5cnc6c(N)ncnc65)O[C@@H]4COP(=O)(O)O[C@@H]2[C@@H]3O)c(=O)[nH]1` [2′3′-cGAMP] the “CD169 (AU)” value [1, 7] was 168.5 ± 10.9** AU.

With “NGLLKIKKGFYKKKQCRPSKGRKRGFCWAVD [immX3K4e + 1]” the “CD169+ (AU)” value [2] was 128.4 ± 1.4 AU and the “Creatine Kinase Act.” value [4] was 178.4 ± 7.6** units per milliliter.

For Heparin, the “CD169 (AU)” value [1, 6] was 34.1 ± 2.9** AU.

For `CCCCCCCC(=O)c1c(O)cc(O)cc1CC(=O)OCC` [Cytosporone B], the “CD169 (AU)” value [1, 5] was 120.3 ± 6.4** AU.

In the case of `O=C(O)CC1CC(c2ccccc2)=NO1` (stereo not shown) [GIT27], the “CD169 (AU)” value [1, 5] is reported as 166.5 ± 34.1** AU.

In the case of `CC(=O)/C=C1\C(=O)N(C)c2ccccc21` [Supercinnamaldehyde], the “CD169 (AU)” value [1, 5] is reported as 159.7 ± 16.6** AU.

With `C=C1/C(=C\C=C2/CCC[C@]3(C)[C@@H]([C@H](C)CCCC(C)(C)O)CC[C@@H]23)C[C@@H](O)C[C@@H]1O` [Calcitriol] the “CD169 (AU)” value [1, 5] was 102.0 ± 11.3 AU.

For `C[C@H]1C[C@H]2[C@@H]3CCC4=CC(=O)C=C[C@]4(C)[C@@]3(F)[C@@H](O)C[C@]2(C)[C@@]1(O)C(=O)CCl` [Clobetasol], the “CD169 (AU)” value [1, 5] was 98.5 ± 5.5 AU.

For `O=C1CCc2cc(OCCCCc3nnnn3C3CCCCC3)ccc2N1` [Cilostazol], the “CD169 (AU)” value [1, 5] was 99.4 ± 27.7 AU.

With Hyaluronan [Hyaluronan(HMW-HA)] the “CD169 (AU)” value ([1]; immX3 peptide 330 nM plus helper at 0.6 ug/ml) was 110.5 ± 10.2 AU.

With `CC(C)[C@H](NC(=O)[C@H](Cc1ccccc1)NC(=O)[C@H](Cc1c[nH]c2ccccc12)NC(=O)[C@H](CS)NC(=O)[C@H](Cc1ccccc1)NC(=O)CNC(=O)[C@H](CCCNC(=N)N)NC(=O)[C@H](CCCCN)NC(=O)[C@H](CCCNC(=N)N)NC(=O)CNC(=O)[C@H](CCCCN)NC(=O)[C@H](CO)NC(=O)[C@@H]1CCCN1C(=O)[C@H](CCCNC(=N)N)NC(=O)[C@H](CS)NC(=O)[C@H](CCC(N)=O)NC(=O)[C@H](CCCCN)NC(=O)[C@H](CCCCN)NC(=O)[C@H](CCCCN)NC(=O)[C@H](Cc1ccc(O)cc1)NC(=O)[C@H](Cc1ccccc1)NC(=O)CNC(=O)[C@H](CCCCN)NC(=O)[C@@H](N)CCCCN)C(=O)N[C@@H](CO)C(=O)O` [immX3FVS] (H-KKGFYKKKQCRPSKGRKRGFCWFVS-OH) the “CD169+ (AU)” value [2] was 109.4 ± 4.5 AU and the CCL22 [2] was 251.3 ± 5.8 pg/mL.

With `OC[C@H]1O[C@H](OC[C@H]2O[C@H](O[C@]3(CO)O[C@H](CO)[C@@H](O)[C@@H]3O)[C@H](O)[C@@H](O)[C@@H]2O)[C@H](O)[C@@H](O)[C@H]1O` [D-raffinose] the “CD169 (AU)” value [1, 8] was 111.9 ± 4.0** AU.

In the case of `O=C(CO)[C@@H](O)[C@@H](O)[C@H](O)[C@H](O)CO` [D-mannoheptulose], the “CD169 (AU)” value ([1]; immX3 peptide 330 nM plus helper at 50 uM) is reported as 140.8 ± 12.4** AU.

B1: CSF1 (protein, UniProt P09603 33-554, looked up)
Macrophage colony-stimulating …: EEVSEYCSHMIGSGHLQSLQRLIDSQMETSCQITFEFVDQEQLKDPVCYLKKAFLLVQDIMEDTMRFRDNTPNAIAIVQLQELSLRLKSCFTKDYEEHDKACVRTFYETPLQLLEKVKNVFNETKNLLDKDWNIFSKNCNNSFAECSSQDVVTKPDCNCLYPKAIPSSDPASVSPHQPLAPSMAPVAGLTWEDSEGTEGSSLLPGEQPLHTVDPGSAKQRPPRSTCQSFEPPETPVVKDSTIGGSPQPRPSVGAFNPGMEDILDSAMGTNWVPEEASGEASEIPVPQGTELSPSRPGGGSMQTEPARPSNFLSASSPLPASAKGQQPADVTGTALPRVGPVRPTGQDWNHTPQKTDHPSALLRDPPEPGSPRISSLRPQGLSNPSTLSAQPQLSRSHSSGSVLPLGELEGRRSTRDRRSPAEPEGGPASEGAARPLPRFNSVPLTDTGHERQSEGSFSPQLQESVFHLLVPSVILVLLAVGGLLFYRWRRRSHQEPQRADSPLEQPEGSPLTQDDRQVELPV
notes: Growth factor class
For B1, the “CD169 (AU)” value [1, 9] was 108.0 ± 32.3 AU.
